The source of these data is patent US20240384350A1, “METHODS OF TREATING CANCER WITH KINASE INHIBITORS” (BOARD OF REGENTS, THE UNIVERSITY OF TEXAS SYSTEM, priority 2021, published 2024).

Molecules are shown by their SMILES.

Common to all, as to test: Ba/F3 drug screening, Cell Titer Glo, IC50 Mut/WT
Common to all, as to format: cell-based
On the technique in general: In ATP-based viability assays light output follows the ATP content of the culture.

One assay relates to EGFR I740dupIPVAK. Particulars: PACC; I740dupIPVAK; Ba/F3; 72 hours.
For the next assay, the target named is T1, EGFR E709_T710del insD (Homo sapiens, UniProt P00533, DEL709-709/T710D).
T1 construct: expressed in transfected cells; host or cells: Ba/F3
Particulars: PACC; E709_T710del insD; Ba/F3; 72 hours.

A further assay concerns the target T2, EGFR N771dupN G724S (Homo sapiens, UniProt P00533, DUP771-771/G724S).
T2 construct: expressed in transfected cells; host or cells: Ba/F3 cells, retroviral pBabe-Puro vector (vector made by GeneScript from EGFR G724S, c.2313_2314insAAC)
The conditions noted are these: Ex20, 72 hours.

The target of another assay is T3, EGFR S768I V774M (Homo sapiens, UniProt P00533, S768I/V774M).
T3 construct: host or cells: Ba/F3
Particulars: PACC; S768I V774M; Ba/F3; 72 hours.

In another assay the target is T4, EGFR G719A/R776C (Homo sapiens, UniProt P00533, G719A/R776C).
T4 construct: expressed in transfected cells; host or cells: Ba/F3
The conditions noted are these: PACC; G719A/R776C; Ba/F3; 72 hours.

A further assay concerns the target T5, EGFR L747P (Homo sapiens, UniProt P00533, L747P).
T5 construct: expressed in transfected cells; host or cells: Ba/F3
Particulars: PACC; L747P; Ba/F3; 72 hours.

Another assay addresses T6, EGFR L858R/L792H (Homo sapiens, UniProt P00533, L792H/L858R).
T6 construct: expressed in transfected cells; host or cells: Ba/F3
The conditions noted are these: PACC; L858R/L792H; Ba/F3; 72 hours.

A further assay addresses T7, EGFR T725M (Homo sapiens, UniProt P00533, T725M).
T7 construct: expressed in transfected cells; host or cells: Ba/F3 cells, retroviral pBabe-Puro vector (vector made by GeneScript from EGFR WT)
The conditions noted are these: Classical-Like, 72 hours.

In the next assay the target is T8, EGFR S768dupSVD V769M (Homo sapiens, UniProt P00533, INS768MDS/V769M).
T8 construct: expressed in transfected cells; host or cells: Ba/F3 cells, retroviral pBabe-Puro vector (vector made by GeneScript from EGFR S768dupSVD, c.2305G > A)
Particulars: Ex20, 72 hours.

The target of a further assay is T9, EGFR Ex19del T790M L718V (Homo sapiens, UniProt P00533, DEL746-750/L718V/T790M).
T9 construct: expressed in transfected cells; host or cells: Ba/F3
The conditions noted are these: T790M-like-3S, 72 hours.

The target in the next assay is T10, EGFR S768I/V769L (Homo sapiens, UniProt P00533, S768I/V769L).
T10 construct: host or cells: Ba/F3
Particulars: PACC; S768I/V769L; Ba/F3; 72 hours.

A further assay has as its target T11, EGFR L861R (Homo sapiens, UniProt P00533, L861R).
T11 construct: expressed in transfected cells; host or cells: Ba/F3 cells, retroviral pBabe-Puro vector (vector made by GeneScript from EGFR WT)
The conditions noted are these: Classical-Like, 72 hours.

The next assay addresses T12, EGFR Ex19del G724S (Homo sapiens, UniProt P00533, DEL746-750/G724S).
T12 construct: expressed in transfected cells; host or cells: Ba/F3
Particulars: PACC; Ex19del G724S; Ba/F3; 72 hours.

For a further assay, the target named is T13, EGFR Ex19del L718Q (Homo sapiens, UniProt P00533, DEL746-750/L718Q).
T13 construct: expressed in transfected cells; host or cells: Ba/F3
Particulars: PACC; Ex19del L718Q; Ba/F3; 72 hours.

The next assay has as its target T14, EGFR L747S (Homo sapiens, UniProt P00533, L747S).
T14 construct: expressed in transfected cells; host or cells: Ba/F3
Particulars: PACC; L747S; Ba/F3; 72 hours.

The target of another assay is T15, EGFR L858R/T790M (Homo sapiens, UniProt P00533, L858R/T790M).
T15 construct: expressed in transfected cells; host or cells: Ba/F3
The conditions noted are these: T790M-like-3S, 72 hours.

In the next assay the target is T16, EGFR L858R/V834L (Homo sapiens, UniProt P00533, L858R/V834L).
T16 construct: expressed in transfected cells; host or cells: Ba/F3 cells, retroviral pBabe-Puro vector
The conditions noted are these: Classical-Like, 72 hours.

In the next assay the target is T17, EGFR G719A L861Q (Homo sapiens, UniProt P00533, G719A/L861Q).
T17 construct: expressed in transfected cells; host or cells: Ba/F3
The conditions noted are these: PACC; G719A L861Q; Ba/F3; 72 hours.

The next assay deals with T18, EGFR G724S T790M (Homo sapiens, UniProt P00533, G724S/T790M).
T18 construct: expressed in transfected cells; host or cells: Ba/F3
Particulars: T790M-like-3R, 72 hours.

Another assay concerns the target T19, EGFR Ex19del (Homo sapiens, UniProt P00533, DEL746-750).
T19 construct: expressed in transfected cells; host or cells: Ba/F3 cells, retroviral pBabe-Puro vector
Particulars: Classical-Like, 72 hours.

Another assay deals with T20, EGFR L858R (Homo sapiens, UniProt P00533, L858R).
T20 construct: expressed in transfected cells; host or cells: Ba/F3 cells, retroviral pBabe-Puro vector
The conditions noted are these: Classical-Like, 72 hours.

Another assay deals with T21, EGFR L858R/T790M/C797S (Homo sapiens, UniProt P00533, C797S/L858R/T790M).
T21 construct: expressed in transfected cells; host or cells: Ba/F3
The conditions noted are these: T790M-like-3R, 72 hours.

A further assay addresses T22, EGFR S784F (Homo sapiens, UniProt P00533, S784F).
T22 construct: expressed in transfected cells; host or cells: Ba/F3 cells, retroviral pBabe-Puro vector (vector made by GeneScript from EGFR WT)
The conditions noted are these: Classical-Like, 72 hours.

A further assay has as its target T23, EGFR K754E (Homo sapiens, UniProt P00533, K754E).
T23 construct: expressed in transfected cells; host or cells: Ba/F3 cells, retroviral pBabe-Puro vector
The conditions noted are these: Classical-Like, 72 hours.

`COc1cc2ncnc(Nc3ccc(F)c(Cl)c3)c2cc1NC(=O)/C=C/CN1CCCCC1` [Dacomitinib]: the “ratio of IC50 for cells with mutant EGFR to IC50 for cells with wildtype EGFR (Mut/WT)” value (“ratio of IC50 for cells with mutant EGFR” below) amounted to 0.01376 with EGFR I740dupIPVAK; 0.08391 at EGFR E709_T710del insD; 3.161 at EGFR N771dupN G724S; 0.1407 on EGFR S768I V774M; 0.002518 on EGFR G719A/R776C; 0.2972 at EGFR L747P. In addition, the “ratio of IC50 for cells with mutant EGFR” value worked out at 0.002838 at EGFR L858R/L792H; 0.03062 on EGFR T725M; 3.097 at EGFR S768dupSVD V769M; 89.62 on EGFR Ex19del T790M L718V; 0.2085 at EGFR S768I/V769L; 0.001653 at EGFR L861R. Besides, the “ratio of IC50 for cells with mutant EGFR” value is listed as 0.1707 at EGFR Ex19del G724S; 0.03226 on EGFR Ex19del L718Q; 0.006377 at EGFR L747S; 10 at EGFR L858R/T790M; 0.009314 at EGFR L858R/V834L; 0.002249 at EGFR G719A L861Q. For the same compound, the “ratio of IC50 for cells with mutant EGFR” value at EGFR G724S T790M amounted to 12.05; on EGFR Ex19del, 0.005832; on EGFR L858R, 0.002159; on EGFR L858R/T790M/C797S, 41.69; on EGFR S784F, 0.08997; on EGFR K754E, 0.03231.
